Assay results as given in patent US10048272B2, “High-affinity small molecule formylpeptide receptor ligands from screening of combinatorial mixture-based libraries” (STC.UNM, priority 2013, dated 2018).
pEC50, pIC50, pKi: −log10 of the molar value. “Also recorded” adds a separate entry of the source. Values belong to the compound of their own block, whether it stands above or below them.

What was measured:
FPR1 [1] = molecular target: T1, FPR1 (Homo sapiens, UniProt P21462); assay: Duplex flow cytometry receptor binding assay (WPep-FITC fluorescent ligand competition), U937/FPR1 cells; set-up: expressed in transfected cells; host or cells: U937 cells (U937/FPR1); conditions: for pKi: WPep-FITC displacement, U937/FPR1 cells
T1 sequence (P21462 1-350): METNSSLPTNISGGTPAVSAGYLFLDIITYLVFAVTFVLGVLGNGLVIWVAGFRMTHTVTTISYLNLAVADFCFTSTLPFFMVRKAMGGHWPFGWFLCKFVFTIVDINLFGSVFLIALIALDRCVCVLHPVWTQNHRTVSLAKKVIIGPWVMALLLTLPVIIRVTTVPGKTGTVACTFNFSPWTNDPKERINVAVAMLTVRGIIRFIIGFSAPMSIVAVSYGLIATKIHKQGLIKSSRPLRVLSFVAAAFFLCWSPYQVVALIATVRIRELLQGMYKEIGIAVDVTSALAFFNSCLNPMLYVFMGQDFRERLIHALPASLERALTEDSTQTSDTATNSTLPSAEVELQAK
Description: Flow cytometry receptor binding assay. The assay was performed in a “duplex” format in which U937/FPR1 cells were tested together with RBL/FPR2 cells as previously described (Young, et al., 2009)(PubChem Summary AIDs 805 and 1202). The FPR1-expressing cells were stained with a red-fluorescent dye, FuraRed™ allowing them to be distinguished from the FPR2-expressing cells during flow cytometric analysis. A fluorescein label was conjugated to the lysine residue of the WPep peptide (WKYMVm) to produce a fluorescent ligand (WPep-FITC) that bound both FPR1 and FPR2. […] Assays were performed in polystyrene 384-well plates with small volume wells (Greiner #784101). Additions to wells were in sequence as follows: (1) test compounds and control reagents (5 ul/well); (2) the combined suspension of U937/FPR1 and RBL/FPR2 cells (5 ul/well) and; (3) (after 30 min, 4° C. incubation) WPep-FITC (5 ul/well). After an additional 45 min, 4° C. incubation, plates were immediately analyzed using flow cytometry. The assay response range was defined by replicate control wells containing unlabeled receptor-blocking peptide (positive control) or buffer (negative control). fMLFF was used as the FPR1-blocking peptide and unlabeled WPep as the FPR2-blocking peptide. Final concentration of WPep-FITC was 5 nM. The assay was homogeneous in that cells, compounds and fluorescent peptide were added in sequence and the wells subsequently analyzed without intervening wash steps. The HyperCyt™ high-throughput flow-cytometry platform (Kuckuck, et al., 2001; Ramirez, et al., 2003) was used to sequentially sample cells from wells of 384-well microplates (2 ul/sample) for presentation to a CyAn flow cytometer (Beckman-Coulter) at a rate of 40 samples/min. Fluorescence was excited at 488 nm and detected with 530/40 and 680/30 optical bandpass filters for WPep-FITC and FuraRed™, respectively. Test compound inhibition of fluorescent peptide binding was calculated as percent inhibition. WPep-FITC fluorescence intensity measurements of cells from control wells were also used to calculate Z′ factors (Zhang, et al., 1999), which ranged between 0.6 and 0.8 for each assay.
Dose response determinations. Fluorescent ligand competition dose response assays were performed essentially as described for single concentration assays except that test compounds were initially tested at a starting concentration of 10 mM in DMSO and serially diluted 1:3 to produce final concentration ranging from 67 μM to 0.1 nM. The resulting ligand competition curves were fitted by Prism software (GraphPad Software, Inc., San Diego, Calif.) using nonlinear least-squares regression in sigmoidal dose response model with variable slope, also known as the four parameter logistic equation. […]
(§1) FPR expression ranged from 100,000 to 200,000 receptors per cell in different assays as determined by comparison to standard curves generated with Fluorescein Reference Standard Microbeads (Bangs Laboratories, Fishers, Ind.). […] To account for effects of possible ligand depletion at the higher receptor concentrations, Ki values were calculated from IC50 estimates by the method of Munson and Rodbard (Munson and Rodbard, 1988): Ki=Kd×[y0/(y0+2]+IC50/{1+[p*×(y0+2)]/[2×Kd×(y0+1)]+y0} in which y0 is the initial bound-to-free concentration ratio for the fluorescent ligand, p* is the added concentration of fluorescent ligand and Kd is the dissociation constant for the fluorescent ligand.

FPR1 [2] = molecular target: T1, FPR1; assay: Intracellular calcium mobilization assay, FPR1 cells (agonist and antagonist determinations); assay type: cell-based; set-up: expressed in transfected cells; host or cells: U937 cells (U937/FPR1); conditions: for Functional activity in FPR1-mediated intracellular Ca2+ response (agonist/antagonist): result in words
Description: (§2) Intracellular calcium mobilization assays. Intracellular calcium mobilization assays were performed as previously described with modifications (Edwards, et al., 2005). Briefly, cells were collected by centrifugation (200×g, 10 min, 24° C.) and suspended at 10^6/ml in 1 ml PBS (Ca^2+, Mg^2+ free). Cells were added with 210 nM Fluo4 (FPR2 cells) or with a combination of 210 nM Fluo4 and 210 nM FuraRed (FPR1 cells). After incubation for 30 min at 24° C. cells were washed with 1 ml PBS, suspended in 1 ml TCM (RPMI, 10% FBS) and stored in the dark at 24° C. until used in assays. For test compound agonist determinations, 50 μL from FPR1 and FPR2 cell suspensions were combined, analyzed 10 s in an Accuri C6 flow cytometer (BD Biosciences) to determine baseline Fluo4 fluorescence in the FL1 channel (530/20 nm), then added with 50 μL containing test compounds and analyzed an additional 110 s to evaluate changes in Fluo4 fluorescence intensity. During the analysis FPR1 cells were distinguished from FPR2 cells on the basis of FuraRed fluorescence intensity detected in the FL3 channel ([…]). The innate calcium response was quantified as the maximum % of cells that exceeded the baseline Fluo4 fluorescence intensity over the course of the analysis. These responses were normalized to the innate calcium responses observed in the presence of 11 nM control peptides: 4pep for FPR1 cells and Wpep for FPR2 cells as follows: Normalized Calcium Response (%)=100×innate response % to test compound/innate response % to control peptide.
(§3) For test compound antagonist determinations, 10 μL test compound was added to the combined FPR1/FPR2 cell mixture and incubated 5 min at 24° C. prior to assessing the innate calcium response to subsequent addition of fMLFF or Wpep peptide. In these determinations, fMLFF and Wpep were used at concentrations that produced 90% of the maximal intracellular calcium response (EC90), and responses were normalized with respect to the innate response to each control peptide observed in the absence of test compounds.
(§4) Intracellular Ca^2+ dose response curves were also fitted using nonlinear least-squares regression in a sigmoidal dose response model with variable slope. Curve fit statistics were used to determine the concentration of added test compound competitor that inhibited Ca^2+ responses by 50 percent (IC50) for antagonists or effected increases in Ca^2+ response by 50% (EC50) for agonists. Since responses were normalized relative to control stimuli the top and bottom of the fitted curves were fixed at 100 and 0.

FPR2 [3] = molecular target: T2, FPR2 (Homo sapiens, UniProt P25090); assay: Duplex flow cytometry receptor binding assay (WPep-FITC fluorescent ligand competition), RBL/FPR2 cells; set-up: expressed in transfected cells; conditions: for FPR2 selectivity: FPR2 over FPR1
T2 sequence (P25090 1-351): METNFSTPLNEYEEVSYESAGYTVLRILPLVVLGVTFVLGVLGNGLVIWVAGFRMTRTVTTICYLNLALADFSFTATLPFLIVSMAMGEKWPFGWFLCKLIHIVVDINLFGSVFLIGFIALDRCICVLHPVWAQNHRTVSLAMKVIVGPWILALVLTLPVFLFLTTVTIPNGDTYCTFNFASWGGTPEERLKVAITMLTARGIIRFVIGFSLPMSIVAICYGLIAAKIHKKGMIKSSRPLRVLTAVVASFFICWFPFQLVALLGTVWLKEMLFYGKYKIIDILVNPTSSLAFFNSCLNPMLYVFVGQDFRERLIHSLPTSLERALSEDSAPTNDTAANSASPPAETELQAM
Description: Flow cytometry receptor binding assay. The assay was performed in a “duplex” format in which U937/FPR1 cells were tested together with RBL/FPR2 cells as previously described (Young, et al., 2009)(PubChem Summary AIDs 805 and 1202). The FPR1-expressing cells were stained with a red-fluorescent dye, FuraRed™ allowing them to be distinguished from the FPR2-expressing cells during flow cytometric analysis. A fluorescein label was conjugated to the lysine residue of the WPep peptide (WKYMVm) to produce a fluorescent ligand (WPep-FITC) that bound both FPR1 and FPR2. […] Assays were performed in polystyrene 384-well plates with small volume wells (Greiner #784101). Additions to wells were in sequence as follows: (1) test compounds and control reagents (5 ul/well); (2) the combined suspension of U937/FPR1 and RBL/FPR2 cells (5 ul/well) and; (3) (after 30 min, 4° C. incubation) WPep-FITC (5 ul/well). After an additional 45 min, 4° C. incubation, plates were immediately analyzed using flow cytometry. The assay response range was defined by replicate control wells containing unlabeled receptor-blocking peptide (positive control) or buffer (negative control). fMLFF was used as the FPR1-blocking peptide and unlabeled WPep as the FPR2-blocking peptide. Final concentration of WPep-FITC was 5 nM. The assay was homogeneous in that cells, compounds and fluorescent peptide were added in sequence and the wells subsequently analyzed without intervening wash steps. […] Fluorescence was excited at 488 nm and detected with 530/40 and 680/30 optical bandpass filters for WPep-FITC and FuraRed™, respectively. Test compound inhibition of fluorescent peptide binding was calculated as percent inhibition. WPep-FITC fluorescence intensity measurements of cells from control wells were also used to calculate Z′ factors (Zhang, et al., 1999), which ranged between 0.6 and 0.8 for each assay. […]
as §1

FPR2 [4] = molecular target: T2, FPR2; assay: Intracellular calcium mobilization assay, FPR2 cells (agonist and antagonist determinations); assay type: cell-based; set-up: expressed in transfected cells; conditions: for Functional activity in FPR2-mediated intracellular Ca2+ response (agonist/antagonist): result in words
Description: as §2, §3, §4

FPR2 [5] = molecular target: T2, FPR2; conditions: literature; cited from earlier work
FPR1 [6] = molecular target: T1, FPR1; conditions: literature; cited from earlier work
[7] = second compound of the printed pair relative to the first (1754-26 to 1754-56)

SMILES: CCCC[C@H](CN(C(=O)Nc1ccccc1)[C@@H](C)CNC(=O)Nc1ccccc1)N(CCCCc1ccccc1)C(=O)Nc1ccccc1 [1753-103]
pKi (FPR1 [1]): 8.40 | pEC50 (FPR1 [2]; agonist determination, read-out: EC50, intracellular Ca2+ response, FPR1 agonist): 6.88 | Response efficacy (fitted Top), Ca2+ response in FPR1 cells (FPR1 [2]; maximum response relative to control peptide 4pep (fMLFF)): 78% | Functional activity in FPR1-mediated intracellular Ca2+ response (agonist/antagonist) (FPR1 [2]): selective partial agonists; also recorded: agonist

SMILES: CCCCOc1ccc(C(=O)NN2C(=O)c3ccccc3NC2c2ccc(OC)cc2)cc1 (centres unmarked) [Quin-C1]
Functional activity at FPR2 (in words) (FPR2 [5]): agonist

SMILES: CCCCOc1ccc(C(=O)NN2C(=O)c3ccccc3NC2c2ccc(O)cc2)cc1 (centres unmarked) [Quin-C7]
Functional activity at FPR1 (in words) (FPR1 [6]): antagonist

Other lines, results leading:

pKi (FPR2 [3]; WPep-FITC displacement, RBL/FPR2 cells): 9.00 | FPR2 selectivity (FPR2 [3]; as printed in b133 ('nM Ki')): > 10,000 nM | FPR2 selectivity (FPR2 [3]; no unit): > 10,000 | Receptor selectivity, FPR1 versus FPR2, in ligand competition binding (in words) (FPR1 [1]): FPR2 selective | pKi (FPR1 [1]): < 5.00 | pIC50 (FPR2 [4]; antagonist determination, Wpep at EC90, read-out: IC50, intracellular Ca2+ response, FPR2 antagonist): 7.09 | Functional activity in FPR2-mediated intracellular Ca2+ response (agonist/antagonist) (FPR2 [4]): antagonist
SMILES: CC(C)[C@H]1CNC(=O)C(=O)N1C[C@@H]1CCCN1C[C@@H](Cc1ccc2ccccc2c1)N1C[C@@H](Cc2ccc(O)cc2)N(CC2CCCCC2)C(=O)C1=O [1754-31]

Decrease of activity for FPR2 (potency difference, pKi) (FPR2 [3]; [7]): 1.28 log units | Receptor selectivity, FPR1 versus FPR2, in ligand competition binding (in words) (FPR1 [1]): FPR1 selective | Increase of activity for FPR1 (potency difference, pKi) (FPR1 [1]; [7]): 1.36 log units | Functional activity in FPR1-mediated intracellular Ca2+ response (agonist/antagonist) (FPR1 [2]): antagonist | EC50, FPR2-mediated Ca2+ response, agonist (in words) (FPR2 [4]; matched the Ki value of the ligand displacement assay): low micromolar | Response efficacy (fitted Top), Ca2+ response in FPR2 cells (FPR2 [4]; maximum response relative to control peptide Wpep (WKYMVm)): 98% | Functional activity in FPR2-mediated intracellular Ca2+ response (agonist/antagonist) (FPR2 [4]): agonist
SMILES: CCCC[C@H]1CNC(=O)C(=O)N1C[C@@H]1CCCN1C[C@@H](CCC)N1C[C@@H](Cc2ccc(O)cc2)N(CCc2ccc(-c3ccccc3)cc2)C(=O)C1=O [1754-56]
